From publication PMC12075652, “ATP functions as a pathogen-associated molecular pattern to activate the E3 ubiquitin ligase RNF213” (Nature Communications, 2025)

Legend:
[1] = target: T1, RNF213-UBE2L3~Ub complex (RNF213-ABP) (Mus musculus, UniProt E9Q555); assay: cryo-EM structure, […] Å; assay type: binding; settings: ADP modelled in AAA3 and AAA4; ATPγS-stimulated labelling reaction applied directly to grid
T1 construct: full-length murine RNF213 covalently linked at Cys4462 to human UBE2L3~Ub activity-based probe; ubiquitin and RZ domain not resolved; with Ubiquitin-conjugating enzyme E2 L3 (Homo sapiens); Ubiquitin (Homo sapiens)

RNF213 (∆N338) [2] = target: T2, RNF213 (∆N338) (Mus musculus, UniProt E9Q555); assay: antagonism of ATPγS-dependent activation, ABP labelling; assay type: biochemical; settings: 900 μM ADP against ATPγS titration; pH 7.5, 2.5 mM MgCl2, 30 °C
T2 construct: N-terminal 338 residues deleted (∆N338), recombinant; biotin UBE2L3~Ub activity-based probe as read-out

RNF213 [3] = target: T3, RNF213 (Mus musculus, UniProt E9Q555); assay: UBE2L3~Ub discharge assay; assay type: biochemical; settings: activator; 1 mM nucleotide, 0.025 μM E3, 20 μM E2~Ub
T3 construct: full-length recombinant protein, about 600 kDa, N-terminal Strep(II) tag in the pulldown construct

RNF213 (∆N338) [4] = target: T2, RNF213 (∆N338); assay: activation of RNF213 labelling by biotin UBE2L3~Ub activity-based probe, blot quantification; assay type: biochemical
RNF213 [5] = target: T4, RNF213 (Mus musculus, UniProt E9Q555, E2449Q/E2806Q); assay: cryo-EM structure, […] Å; assay type: binding; settings: ATP modelled in AAA4, AAA3 empty; WB34 mutant
T4 construct: full-length recombinant protein, about 600 kDa, N-terminal Strep(II) tag in the pulldown construct

EC50 (RNF213 (∆N338) [4]) [µM] | SMILES | cryo-EM structure, 3.8 Å [1] | antagonism of ATPγS-dependent activation, ABP labelling (RNF213 (∆N338) [2]) | UBE2L3~Ub discharge assay (RNF213 [3]) | cryo-EM structure, 4.5 Å (RNF213 [5])
 | Nc1ncnc2c1ncn2[C@@H]1O[C@H](COP(=O)(O)OP(=O)(O)O)[C@@H](O)[C@H]1O [ADP] | new density at the AAA3 and AAA4 sites allowed modeling of ADP | These data suggest that ADP inhibits ATP-dependent activation |  | 
 | Nc1ncnc2c1ncn2[C@@H]1O[C@H](COP(=O)(O)OP(=O)(O)NP(=O)(O)O)[C@@H](O)[C@H]1O [AMP-PNP] |  |  | (ATPγS) and adenylyl-imidodiphosphate (AMP-PNP) also stimulated E2~Ub discharge | 
85 | Nc1ncnc2c1ncn2[C@@H]1O[C@H](COP(=O)(O)OP(=O)(O)OP(O)(O)=S)[C@@H](O)[C@H]1O [ATPγS] |  |  | (ATPγS) and adenylyl-imidodiphosphate (AMP-PNP) also stimulated E2~Ub discharge | 
 | Nc1ncnc2c1ncn2[C@@H]1O[C@H](COP(=O)(O)OP(=O)(O)OP(=O)(O)O)[C@@H](O)[C@H]1O [ATP] |  |  | E3 activity was enhanced by ATP, but not by ADP or AMP | Although ATP could be modeled into AAA4, AAA3 was empty
